Measured values published in publication PMC8151276, “An Integrated Approach toward NanoBRET Tracers for Analysis of GPCR Ligand Engagement” (Molecules, 2021).

Experiments:
Type in all cases: binding
ADORA2B = molecular target: T1, ADORA2B (Homo sapiens, UniProt P29275); assay: NanoBRET screen HiBiT-ADORA2B in HEK293; conditions: ADORA2B
T1 construct: purchased Promega (in-house HiBiT-GPCR construct library, NanoBRET)
T1 sequence (P29275 1-332): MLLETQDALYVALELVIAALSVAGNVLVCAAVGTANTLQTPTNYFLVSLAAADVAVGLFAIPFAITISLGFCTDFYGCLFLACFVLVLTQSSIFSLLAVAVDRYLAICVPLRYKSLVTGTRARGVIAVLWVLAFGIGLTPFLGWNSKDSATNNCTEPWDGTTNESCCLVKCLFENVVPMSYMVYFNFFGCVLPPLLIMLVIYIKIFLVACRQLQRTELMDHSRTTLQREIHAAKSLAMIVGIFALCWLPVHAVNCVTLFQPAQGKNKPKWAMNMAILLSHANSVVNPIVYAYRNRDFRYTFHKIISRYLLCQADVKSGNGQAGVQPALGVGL
Method: (§1) Each tracer candidate was screened across the entire library of HiBiT-GPCR constructs using NanoBRET as the detection modality. As depicted in Figure 4A, the specificity of interactions was evaluated through decrease in BRET due to competitive displacement of a bound tracer by excess parental compound. Each tracer was analyzed for binding to each HiBiT-GPCR fusion in the absence and in the presence of competing parental compound. Briefly, HEK293 cells were transfected with HiBiT-GPCR constructs diluted into promoterless DNA to reduce expression and maximize translocation to the cell surface. Each tracer candidate was then screened at concentrations of 1 μM and 0.1 μM across cells expressing these fusions. Cells were treated for 1.5 h with tracer either alone or in the presence of 20 μM competing parental compound (i.e., control). BRET was measured upon addition of purified LgBiT and subsequent complementation with HiBiT genetically fused to a GPCR. The specificity of interactions was assessed through a decrease in BRET signal due to competitive displacement of the bound tracer. To further gauge the robustness of these interactions, the fold response over the control (i.e., BRETtracer/BRETcontrol) was calculated. We chose a 1.5-fold response, which translates to ≥7-fold signal over noise as the minimal threshold required to score an interaction as positive. […]. Below we highlight the screening results obtained for our exemplary fluorescent tracers based on Clozapine, Amitriptyline and AZD1283.
(§2) HiBiT-GPCR DNA constructs were diluted in 10 mM Tris pH 8 to a final concentration of 0.01 μg/μL, arrayed in 96-well plates and stored at −20 °C. For transfection, HEK293 cells were suspended in Opti-MEM (without phenol red) supplemented with 2% fetal bovine serum (Seradigm) and 100 units/mL penicillin–streptomycin (Gibco) at a final concentration of 220,000 cells/mL and dispensed into white 96-well plates at 90 μL/well. Subsequent transfections and screens were carried using an Agilent Bravo Automated Liquid Handling Platform. First, the 96-well HiBiT DNA arrays were diluted 25-fold in Opti-MEM (without serum or phenol red) to a final concentration of 0.0004 μg/μL and 20 μL of the diluted DNAs were transferred into new 96-well plates. Next, promoterless carrier DNA (1 μg/μL) was diluted 25-fold (0.04 μg/μL) and then dispensed into the diluted arrays at 20 μL/well. Following brief mixing, Viafect transfection reagent (Promega) diluted 16-fold into Opti-MEM was dispensed into the plates at 40 μL/well. After mixing by pipetting, plates were incubated for 10 min on the pipetting station deck. The DNA-transfection reagent complexes were then added to plates containing cells. To facilitate the screen, 10 μL of DNA-transfection reagent complexes were added in duplicates to the top 4 and bottom 4 rows, resulting in two identical 48-well arrays per plate. Plates with transfected cells were incubated for 18–20 h at 37 °C/5% CO2. A screen of each tracer across the entire library using two different concentrations requires duplicate plates of transfected cells. Depending on the number of tracers being screened, transfections can be scaled up using the same ratios. The next day, for each tracer, four 20× screening solutions in tracer dilution buffer (Promega) were prepared: two duplicates at final concentration of 20 μM and two duplicates at a final concentration of 2 μM. A competing unmodified compound was added to one of each duplicate at a final concentration of 400 μM. The four resulting solutions were diluted 4-fold in Opti-MEM without serum or phenol red to generate 5× solutions (5 µM and 0.5 µM tracer +/− 100 μM competing compound). To screen the library, a BioTek MultiFlo FX liquid dispenser was used to dispense 22.5 µL of tracer solution to the top 4 rows and 22.5 µL tracer + competing compound solution to the 4 bottom rows. Plates were briefly mixed on an orbital shaker and incubated for 1.5 h at room temperature. […]

MTNR1B = molecular target: T2, MTNR1B (Homo sapiens, UniProt P49286); assay: NanoBRET screen HiBiT-MTNR1B in HEK293; conditions: MTNR1B
T2 construct: purchased Promega (in-house HiBiT-GPCR construct library, NanoBRET)
T2 sequence (P49286 1-362): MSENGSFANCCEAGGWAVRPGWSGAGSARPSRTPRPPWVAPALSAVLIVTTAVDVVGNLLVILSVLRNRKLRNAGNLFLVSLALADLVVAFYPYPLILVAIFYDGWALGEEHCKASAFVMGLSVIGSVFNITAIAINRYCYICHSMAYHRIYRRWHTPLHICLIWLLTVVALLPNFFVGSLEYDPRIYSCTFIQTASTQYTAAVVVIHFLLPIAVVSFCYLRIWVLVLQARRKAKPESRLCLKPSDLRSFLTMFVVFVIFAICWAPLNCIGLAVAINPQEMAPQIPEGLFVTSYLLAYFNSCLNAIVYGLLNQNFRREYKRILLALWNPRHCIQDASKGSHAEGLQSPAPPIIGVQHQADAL
Method: as §1, §2

HCRTR2 = molecular target: T3, HCRTR2 (Homo sapiens, UniProt O43614); assay: NanoBRET screen HiBiT-HCRTR2 in HEK293; conditions: HCRTR2
T3 construct: purchased Promega (in-house HiBiT-GPCR construct library, NanoBRET)
T3 sequence (O43614 1-444): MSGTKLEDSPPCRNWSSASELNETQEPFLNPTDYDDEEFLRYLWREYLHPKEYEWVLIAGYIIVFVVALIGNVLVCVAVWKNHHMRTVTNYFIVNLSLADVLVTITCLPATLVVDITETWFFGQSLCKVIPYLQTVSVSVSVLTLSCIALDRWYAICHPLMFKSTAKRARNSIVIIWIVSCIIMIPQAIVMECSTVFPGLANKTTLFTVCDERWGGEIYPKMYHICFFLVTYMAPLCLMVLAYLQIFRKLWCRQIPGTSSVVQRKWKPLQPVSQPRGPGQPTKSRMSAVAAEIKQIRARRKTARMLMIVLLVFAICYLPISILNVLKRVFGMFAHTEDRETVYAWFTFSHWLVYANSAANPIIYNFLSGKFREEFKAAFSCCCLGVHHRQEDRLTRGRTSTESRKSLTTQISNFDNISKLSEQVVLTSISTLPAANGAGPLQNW
Method: as §1, §2

| SMILES | NanoBRET Fold Response (ADORA2B; 0.1μM tracer) | NanoBRET Fold Response (ADORA2B; 1μM tracer) | NanoBRET Fold Response (MTNR1B; 0.1μM tracer) | NanoBRET Fold Response (MTNR1B; 1μM tracer) | NanoBRET Fold Response (HCRTR2; 0.1μM tracer) | NanoBRET Fold Response (HCRTR2; 1μM tracer) | NanoBRET Fold Response (ADORA2B; tracer 0.1μM) | NanoBRET Fold Response (ADORA2B; tracer 1μM) | NanoBRET Fold Response (MTNR1B; tracer 0.1μM) | NanoBRET Fold Response (MTNR1B; tracer 1μM) | NanoBRET Fold Response (HCRTR2; tracer 0.1μM) | NanoBRET Fold Response (HCRTR2; tracer 1μM) |
| --- | --- | --- | --- | --- | --- | --- | --- | --- | --- | --- | --- | --- |
| O=C(CCOCCOCCOCCOCCNC(=O)CCc1ccc2n1[B-](F)(F)[N+]1=C(c3ccc[nH]3)C=CC1=C2)NCCCN1CCN(C2=Nc3cc(Cl)ccc3Nc3ccccc32)CC1 [Clozapine-a-2-NB590] | 1.01 | 0.67 | 1.06 | 0.97 | 1.05 | 1.16 |  |  |  |  |  |  |
| CN1CCN(C2=Nc3cc(Cl)ccc3Nc3ccc(CNC(=O)CCOCCOCCOCCOCCNC(=O)CCc4ccc5n4[B-](F)(F)[N+]4=C(c6ccc[nH]6)C=CC4=C5)cc32)CC1 [Clozapine-b-2-NB590] | 1.07 | 0.99 | 0.95 | 1.05 | 0.99 | 0.98 |  |  |  |  |  |  |
| CN1CCN(C2=Nc3cc(Cl)ccc3N(CC(=O)NCCOCCOCCOCCOCCNC(=O)CCc3ccc4n3[B-](F)(F)[N+]3=C(c5ccc[nH]5)C=CC3=C4)c3ccccc32)CC1 [Clozapine-c-2-NB590] | 1.07 | 0.91 | 0.98 | 1.02 | 0.97 | 1.04 |  |  |  |  |  |  |
| O=C(CCOCCOCCOCCOCCNC(=O)CCc1ccc2n1[B-](F)(F)[N+]1=C(c3ccc[nH]3)C=CC1=C2)NCCCN1CCN(C2=Nc3ccccc3Oc3ccc(Cl)cc32)CC1 [Loxapine-a-2-NB590] |  |  |  |  |  |  | 1.41 | 0.62 | 0.44 | 1.04 | 1.13 | 1.16 |
| COc1ccccc1N1CCN(CCCCN2C(=O)c3ccc(CNC(=O)CCOCCOCCOCCOCCNC(=O)CCc4ccc5n4[B-](F)(F)[N+]4=C(c6ccc[nH]6)C=CC4=C5)cc3C2=O)CC1 [NAN-190-2-NB590] |  |  |  |  |  |  | 0.94 | 0.64 |  | 1.00 | 1.02 | 1.00 |
| COc1ccccc1N1CCN(CCCCN2C(=O)c3ccc(CNC(=O)CCOCCNC(=O)c4ccc(CNC(=O)CCc5ccc6n5[B-](F)(F)[N+]5=C(c7ccc[nH]7)C=CC5=C6)cc4)cc3C2=O)CC1 [NAN-190-3-NB590] |  |  |  |  |  |  | 0.94 | 1.30 | 1.20 | 1.15 | 0.98 | 0.97 |
| O=C(CCc1ccc2n1[B-](F)(F)[N+]1=C(c3ccc[nH]3)C=CC1=C2)NCc1ccc(C(=O)NCCOCCC(=O)N[C@@H]2CC[C@@]3(O)[C@H]4Cc5ccc(O)c6c5[C@@]3(CCN4CC3CC3)[C@H]2O6)cc1 [Naltrexone-3-NB590] |  |  |  |  |  |  | 0.20 | 0.77 | 0.94 | 0.66 | 1.04 | 1.01 |
